# Experimental data as given in patent US8791148B2, “Substituted benzimidazolone derivatives, medicaments comprising them and their use” (AbbVie Deutschland GmbH & Co. KG, priority 2006, dated 2014).
# Biological target: T1, human vasopressin V1b receptor (Homo sapiens, UniProt P47901)
# T1 construct: expressed in transfected cells; host or cells: CHO-K1 (cell line hV1b-3H2_CHO), membrane preparation
# T1 sequence (P47901 1-424): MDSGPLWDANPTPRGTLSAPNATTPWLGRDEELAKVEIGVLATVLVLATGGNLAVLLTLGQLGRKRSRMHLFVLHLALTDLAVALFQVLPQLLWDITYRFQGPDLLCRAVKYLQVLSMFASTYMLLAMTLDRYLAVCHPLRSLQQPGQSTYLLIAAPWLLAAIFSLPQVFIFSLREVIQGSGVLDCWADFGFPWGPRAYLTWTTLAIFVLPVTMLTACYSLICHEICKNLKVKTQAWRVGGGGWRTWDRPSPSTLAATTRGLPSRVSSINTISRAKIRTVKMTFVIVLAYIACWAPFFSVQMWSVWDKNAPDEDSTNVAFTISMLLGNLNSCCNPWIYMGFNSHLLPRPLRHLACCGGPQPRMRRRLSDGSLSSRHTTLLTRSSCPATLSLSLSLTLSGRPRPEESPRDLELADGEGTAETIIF
# Experiment: Vasopressin V1b receptor binding assay
# Conditions: membranes from CHO-K1 cells with stably expressed human V1b receptors; displacement of 1.5 nM 3H-AVP; read-out: V1b receptor affinity (affinity constant Ki)
# Experimental: Vasopressin V1b Receptor Binding Assay:
# The test substances were dissolved in a concentration of 10^−2 M in DMSO and further diluted to 5×10^−4 M to 5×10^−9 M in DMSO. This series of DMSO predilutions was diluted 1:10 with assay buffer. The substance concentration was again diluted 1:5 in the assay mixture (2% DMSO in the mixture).
# The membrane pellet was again homogenized and centrifuged as described and then taken up in 50 mM Tris-HCl, pH 7.4, homogenized and stored in aliquots frozen in liquid nitrogen at −190° C.
# The incubation buffer was: 50 mM Tris, 10 mM MgCl2, 0.1% BSA, pH 7.4. […] The nonspecific binding was determined with 1 uM AVP (Bachem #H1780). All determinations were carried out as triplicate determinations. After incubation (60 minutes at room temperature), the free radioligand was removed by vacuum filtration (Skatron cell harvester 7000) through Wathman GF/B glass fiber filter mats, and the filters were transferred into scintillation vials. The liquid scintillation measurement took place in a Tricarb model 2000 or 2200CA instrument (Packard). Conversion of the measured cpm into dpm was carried out with the aid of a standard quench series.
# The binding parameters were calculated by nonlinear regression in SAS.
# The above assay was used to measure the affinities of the compounds of the invention for the human vasopressin V1b receptor and to determine the affinity constants (Ki).
row,Ki [nM],SMILES
1,< 100,"CCN1CCN([C@H]2CCCN(C(=O)C(c3ccccc3)n3c(=O)n(S(=O)(=O)c4ccc(OC)cc4)c4ccc(C#N)cc43)C2)CC1 (stereo partly drawn) [Example 231, 3-{2-[(S)-3-(4-Ethyl-piperazin-1-yl)-piperidin-1-yl]-2-oxo-1-phenyl-ethyl}-1-(4-methoxy-benzenesulfonyl)-2-oxo-2,3-dihydro-1H-benzoimidazole-5-carbonitrile; compound with trifluoroacetic acid]"
2,500 to 10000,"COc1ccc(S(=O)(=O)n2c(=O)n(C(C(=O)N3CCN(C4CCCNC4)CC3)c3ccccc3)c3cc(Cl)ccc32)cc1 (centres unmarked) [Example 165, 5-Chloro-1-(4-methoxybenzenesulfonyl)-3-[2-oxo-1-phenyl-2-(4-piperidin-3-ylpiperazin-1-yl)ethyl]-1,3-dihydrobenzimidazol-2-one]"
3,500 to 10000,"COc1ccc(S(=O)(=O)n2c(=O)n(C(C(=O)N3CCCC(N)C3)c3ccccc3)c3cc(C#N)ccc32)cc1 (centres unmarked) [Example 170, 3-[2-(3-Aminopiperidin-1-yl)-2-oxo-1-phenylethyl]-1-(4-methoxybenzenesulfonyl)-2-oxo-2,3-dihydro-1H-benzimidazole-5-carbonitrile]"
4,< 100,"COc1ccc(S(=O)(=O)n2c(=O)n(C(C(=O)N3CCC[C@H](N4CCN(C)CC4)C3)c3ccccc3)c3cc(C#N)ccc32)cc1 (stereo partly drawn) [Example 193, 1-(4-Methoxybenzenesulfonyl)-3-{2-[(S)-3-(4-methylpiperazin-1-yl)piperidin-1-yl]-2-oxo-1-phenylethyl}-2-oxo-2,3-dihydro-1H-benzimidazole-5-carbonitrile]"
5,100 to 500,"COc1ccc(S(=O)(=O)n2c(=O)n(C(C(=O)N3CCC(N)C3)c3ccccc3)c3cc(Cl)ccc32)cc1 (centres unmarked) [Example 166, 3-[2-(3-Aminopyrrolidin-1-yl)-2-oxo-1-phenylethyl]-5-chloro-1-(4-methoxybenzenesulfonyl)-1,3-dihydrobenzimidazol-2-one]"
6,500 to 10000,"COc1ccc(S(=O)(=O)n2c(=O)n(C(C(=O)N3CC[C@H](N)C3)c3ccccc3)c3cc(C#N)ccc32)cc1 (stereo partly drawn) [Example 171, 3-[2-((S)-3-Aminopyrrolidin-1-yl)-2-oxo-1-phenylethyl]-1-(4-methoxybenzenesulfonyl)-2-oxo-2,3-dihydro-1H-benzimidazole-5-carbonitrile]"
7,< 100,"COc1ccc(S(=O)(=O)n2c(=O)n(C(C(=O)N3CCC[C@@H](NC4CCN(C(C)C)CC4)C3)c3ccccc3)c3cc(C#N)ccc32)cc1 (stereo partly drawn) [Example 249, 3-{2-[(R)-3-(1-Isopropyl-piperidin-4-ylamino)-piperidin-1-yl]-2-oxo-1-phenylethyl}-1-(4-methoxy-benzenesulfonyl)-2-oxo-2,3-dihydro-1H-benzoimidazole-5-carbonitrile]"
8,100 to 500,"COc1ccc(S(=O)(=O)n2c(=O)n(C(C(=O)N3CC[C@H](Nc4ccnc(C)c4)C3)c3ccccc3)c3cc(C#N)ccc32)cc1 (stereo partly drawn) [Example 254, 1-(4-Methoxy-benzenesulfonyl)-3-{2-[(S)-3-(2-methyl-pyridine-4-ylamino)-pyrrolidin-1-yl]-2-oxo-1-phenyl-ethyl}-2-oxo-2,3-dihydro-1H-benzoimidazole-5-carbonitrile; compound with trifluoroacetic acid]"

# Second part, the compound before the results:
row,SMILES,Ki [nM]
1,"COc1ccc(S(=O)(=O)n2c(=O)n(C(C(=O)NCc3ccccn3)c3ccccc3)c3cc(Cl)ccc32)cc1 (centres unmarked) [Example 111, 2-[6-Chloro-3-(4-methoxybenzenesulfonyl)-2-oxo-2,3-dihydrobenzimidazol-1-yl]-2-phenyl-N-pyridin-2-ylmethylacetamide]",500 to 10000
2,COc1ccc(S(=O)(=O)n2c(=O)n(C(C(=O)NCCc3c[nH]cn3)c3ccccc3)c3cc(Cl)ccc32)cc1 (centres unmarked) [Example 116],500 to 10000
3,"COc1ccc(S(=O)(=O)n2c(=O)n(CC(=O)N3CCN(C4CCN(C)CC4)CC3)c3cc(Cl)ccc32)cc1 [Example 86, 5-Chloro-1-(4-methoxybenzenesulfonyl)-3-{2-[4-(1-methylpiperidin-4-yl)piperazin-1-yl]-2-oxoethyl}-1,3-dihydrobenzimidazol-2-one]",500 to 10000
4,"N#Cc1ccc2c(c1)n(C(C(=O)N1CCN(c3ccncc3)CC1)c1ccccc1)c(=O)n2S(=O)(=O)c1cccc2cccnc12 (centres unmarked) [Example 50, 2-Oxo-3-[2-oxo-1-phenyl-2-(4-pyridin-4-ylpiperazin-1-yl)ethyl]-1-(quinoline-8-sulfonyl)-2,3-dihydro-1H-benzimidazole-5-carbonitrile]",500 to 10000
5,"COc1ccc(S(=O)(=O)n2c(=O)n(C(C(=O)N3CC[C@H](N4CCN(C)CC4)C3)c3ccccc3)c3cc(Cl)ccc32)cc1 (stereo partly drawn) [Example 153, 5-Chloro-1-(4-methoxybenzenesulfonyl)-3-{2-[(S)-3-(4-methylpiperazin-1-yl)pyrrolidin-1-yl]-2-oxo-1-phenylethyl}-1,3-dihydrobenzimidazol-2-one]",< 100
6,"COc1ccc(S(=O)(=O)n2c(=O)n(C(C(=O)N3CCCC3)c3ccccc3)c3cc(Cl)ccc32)cc1 (centres unmarked) [Example 102, 5-Chloro-1-(4-methoxybenzenesulfonyl)-3-(2-oxo-1-phenyl-2-pyrrolidin-1-ylethyl)-1,3-dihydrobenzimidazol-2-one]",100 to 500
7,"O=C(C(c1ccccc1)n1c(=O)n(S(=O)(=O)c2ccc(C(F)(F)F)cc2)c2ccc(Cl)cc21)N1CCN(c2ccncc2)CC1 (centres unmarked) [Example 49, 5-Chloro-3-[2-oxo-1-phenyl-2-(4-pyridin-4-ylpiperazin-1-yl)ethyl]-1-(4-trifluoromethylbenzenesulfonyl)-1,3-dihydrobenzimidazol-2-one]",500 to 10000
8,"CCCN1CCN(C2CCN(C(=O)C(c3ccccc3)n3c(=O)n(S(=O)(=O)c4ccc(OC)cc4)c4cc(Cl)ccc43)C2)CC1 (centres unmarked) [Example 74, 5-Chloro-3-(4-methoxybenzenesulfonyl)-1-{2-oxo-1-phenyl-2-[3-(4-propylpiperazin-1-yl)-pyrrolidin-1-yl]ethyl}-1,3-dihydrobenzimidazol-2-one]",< 100
9,"COc1ccc(S(=O)(=O)n2c(=O)n(C(C(=O)N3CC[C@H](N4CCN(C)CC4)C3)c3ccccc3)c3cc(C#N)ccc32)cc1 (stereo partly drawn) [Example 160, 1-(4-Methoxybenzenesulfonyl)-3-{2-[(S)-3-(4-methylpiperazin-1-yl)-pyrrolidin-1-yl]-2-oxo-1-phenylethyl}-2-oxo-2,3-dihydro-1H-benzimidazole-5-carbonitrile]",< 100
10,"O=C(C(c1ccccc1)n1c(=O)n(S(=O)(=O)c2cccc3cccnc23)c2ccc(Cl)cc21)N1CCN(c2ccncc2)CC1 (centres unmarked) [Example 53, 5-Chloro-3-[2-oxo-1-phenyl-2-(4-pyridin-4-ylpiperazin-1-yl)ethyl]-1-(quinoline-8-sulfonyl)-1,3-dihydrobenzimidazol-2-one]",< 100
11,"COc1ccc(S(=O)(=O)n2c(=O)n(CC(=O)N3CCCCC3)c3cc(Cl)ccc32)cc1 [Example 87, 5-Chloro-1-(4-methoxybenzenesulfonyl)-3-(2-oxo-2-piperidin-1-yl-ethyl)-1,3-dihydrobenzimidazol-2-one]",500 to 10000
12,"COc1ccc(S(=O)(=O)n2c(=O)n(C(C(=O)N3CCN(c4ccccn4)CC3)c3ccccc3)c3cc(Cl)ccc32)cc1 (centres unmarked) [Example 82, 5-Chloro-1-(4-methoxybenzenesulfonyl)-3-[2-oxo-1-phenyl-2-(4-pyridin-2-ylpiperazin-1-yl)ethyl]-1,3-dihydrobenzimidazol-2-one]",500 to 10000
13,"COc1ccc(S(=O)(=O)n2c(=O)n(C(C(=O)N3CC[C@@H](N4CCN(Cc5ccccc5)CC4)C3)c3ccccc3)c3cc(Cl)ccc32)cc1 (stereo partly drawn) [Example 142, 3-{2-[(R)-3-(4-Benzylpiperazin-1-yl)-pyrrolidin-1-yl]-2-oxo-1-phenylethyl}-5-chloro-1-(4-methoxybenzenesulfonyl)-1,3-dihydrobenzimidazol-2-on]",100 to 500
14,"COc1ccc(S(=O)(=O)n2c(=O)n(C(C(=O)N3CCC(N4CCN(C)CC4)CC3)c3ccccc3)c3ccccc32)c(OC)c1 (centres unmarked) [Example 72, 1-(2,4-Dimethoxybenzenesulfonyl)-3-{2-[4-(4-methylpiperazin-1-yl)piperidin-1-yl]-2-oxo-1-phenylethyl}-1,3-dihydrobenzimidazol-2-one]",500 to 10000
15,"CCCN1CCN(C2CCN(C(=O)C(Cc3ccccc3)n3c(=O)n(S(=O)(=O)c4ccc(OC)cc4)c4ccc(Cl)cc43)C2)CC1 (centres unmarked) [Example 81, 3-{1-Benzyl-2-oxo-2-[3-(4-propylpiperazin-1-yl)pyrrolidin-1-yl]ethyl}-5-chloro-1-(4-methoxybenzenesulfonyl)-1,3-dihydrobenzimidazol-2-one]",100 to 500
